Several values for one entry are separate records, joined by “and”; a condition that tells them apart may be missing. Equal values may be shown once.
Test system: osteoarthritis in rabbit knee
Assay: Histopathological evaluation of femur and tibia condyles, rabbit knee osteoarthritis model
Assay type: in vivo, rabbits (Kbs:NZW)
Set-up: key to Fibrillation and/or fissure / Lowered proteoglycan stainability / Disorganization of chondrocytes / Loss of chondrocytes / Exposure of subchondral bone / Cluster formation / Histopathological score / Loss of superficial layer / Cartilage erosion: 0: None; 1: slight; 2: mild; 3: moderate; 4: severe; key to Disorganization of chondrocytes, Mean / Loss of chondrocytes, Mean / Exposure of subchondral bone, Mean / Cluster formation, Mean / Cartilage erosion, Mean: grade 0 to +4 per item; key to Histopathological score, Mean: sum of 8 items each graded 0 to +4
Conditions: for Cluster formation / Disorganization of chondrocytes / Exposure of subchondral bone / Fibrillation and/or fissure / Loss of chondrocytes / Lowered proteoglycan stainability / Cartilage erosion / Loss of superficial layer / Histopathological score / Cartilage erosion, Mean / Cluster formation, Mean / Disorganization of chondrocytes, Mean / Exposure of subchondral bone, Mean / Fibrillation and/or fissure, Mean / Loss of chondrocytes, Mean / Loss of superficial layer, Mean / Lowered proteoglycan stainability, Mean / Histopathological score, Mean: day 42; for Cluster formation / Disorganization of chondrocytes / Exposure of subchondral bone / Fibrillation and/or fissure / Loss of chondrocytes / Lowered proteoglycan stainability / Cartilage erosion / Loss of superficial layer / Histopathological score: individual animals 201-206; for Cluster formation / Disorganization of chondrocytes / Exposure of subchondral bone / Fibrillation and/or fissure / Loss of chondrocytes / Lowered proteoglycan stainability / Cartilage erosion / Loss of superficial layer: grade 0-4; for Histopathological score: sum of all items; for Cartilage erosion, Mean / Cluster formation, Mean / Disorganization of chondrocytes, Mean / Exposure of subchondral bone, Mean / Fibrillation and/or fissure, Mean / Loss of chondrocytes, Mean / Loss of superficial layer, Mean / Lowered proteoglycan stainability, Mean / Histopathological score, Mean: group mean n=6
Description: Twelve 11- to 12-week-old male rabbits (Kbs:NZW) were used. Rabbits were reared in separate cages (one rabbit per cage) at 14.4° C. to 24.9° C. under light (12 hours from 7:00 am to 7:00 pm) with continuous ventilation. Rabbits were allowed to eat 150 g of feed (CR-3, CLEA Japan, Inc.) per day and to drink tap water.
(9Z)-9-Octadecenoic acid-(2-hydroxy-2-oxide-1,2-oxaphospholan-4-yl)methyl ester sodium salt (C18:1-cPA; hereafter, referred to as “ScPA”) was used.
Hair in the vicinity of the knee joint of the right hind limb of a rabbit was shaved using electrical clippers under deep anesthesia, and the shaved area was disinfected with Isodine. The outer coat on the medial aspect of the right hind limb was incised with a surgical knife, the boundary between the medial aspect and the articular capsule of the patellofemoral ligament was further incised, and the medial patellofemoral ligament was then dissected. Thereafter, the articular capsule was spread wide open to expose the medial meniscus, which was then completely removed. Following the removal of the meniscus, tissue and epidermis in the vicinity of the articular capsule were sutured. At the time of suturing, the site of operation was washed with physiological saline (titer: 500 mg/20 ml) containing antibiotics (Viccillin, Meiji Seika Pharma Co., Ltd.).
After the model animals were prepared, they were divided into two groups each consisting of 6 individuals while averaging body […] (i.e., the vehicle administered group of Animal Numbers 101 to 106 and the test substance (ScPA) administered group of Animal Numbers 201 to 206).
The test compound and the vehicle were administered in the manner described below. • Route of administration: into the joint cavity • Site of administration: right hind limb (treated limb) • Timing of administration: on days 7, 11, 14, 18, 21, 25, 28, 32, 35, and 39 • Dosage: Test compound: 10 μg/rabbit (volume: 0.2 ml) • Vehicle: 0.2 ml/rabbit • Means of administration: with the use of a 1.0-ml syringe (Terumo Corporation) and a 27 G injection needle (Terumo Corporation) (1-5) Pain Assessment (Weight Distribution Across both Hind Limbs) Frequency of Measurement:
Four limbs were dissected from the animals under deep anesthesia, causing them to bleed to death. Thereafter, the femur condyle and the tibial condyle were removed from the knee joint of the treated limb (the right hind limb), followed by fixation in a 10% neutral buffered formalin solution.
The femur and the tibia that had been soaked and fixed in a 10% neutral buffered formalin solution were subjected to demineralization with EDTA. After the completion of demineralization, the colored sites identified below were embedded in paraffin in accordance with a conventional technique, and the resultant was sliced to a thickness of 4 μm each. The slices were subjected to hematoxylin-eosin (HE) staining and safranin O (proteoglycan) staining and histopathologically examined under an optical microscope (BX51TF; OLYMPUS). The degree of cartilage degeneration of the pathological specimens was evaluated in accordance with the criteria shown in Table 1 below (Kikuchi, T, Yoneda, H. et al., Osteoarthritis cartilage, 4; p. 99 and continuing pages, 1996). Specifically, the specimens were evaluated in terms of loss of the following 8 items according to a five-grade evaluation (0 to +4): superficial layer; cartilage erosion; fibrillation and/or fissure; lowered proteoglycan stainability (safranin O stainability); disorganization of chondrocytes; loss of chondrocytes; exposure of subchondral bone; and cluster formation. The sum total score of all items was defined as the overall score. Observation items without specific criteria defined in Table 1 were evaluated in accordance with the criteria shown in Table 2 below (Naoki Ishiguro et al., Journal of Surgery, 29: p. 112 and continuing pages, 2010).

[1] = lateral condyle of femur, listed as Test substance, sodium salt
[2] = lateral condyle of tibia, listed as Test substance, sodium salt
[3] = medial condyle of femur, listed as Test substance, sodium salt
[4] = medial condyle of the femur, of 6 samples
[5] = medial condyle of the tibia, of 6 samples
[6] = medial condyle of tibia, listed as Test substance, sodium salt

CCCCCCCC/C=C\CCCCCCCC(=O)OCC1COP(=O)([O-])C1.[Na+] (stereo not shown) [ScPA, (9Z)-9-Octadecenoic acid-(2-hydroxy-2-oxide-1,2-oxaphospholan-4-yl)methyl ester sodium salt]
cartilage erosion in histopathological image (FIG. 12 B) (Animal No. 201, medial aspect of the right femur, HE staining): slight
joint cartilage change in histopathological image (FIG. 12 D) (Animal No. 201, medial aspect of the right femur, SO staining): no change
Cluster formation (lateral condyle of femur): 0
Disorganization of chondrocytes (lateral condyle of femur): 0
Exposure of subchondral bone (lateral condyle of femur): 0
Fibrillation and/or fissure (lateral condyle of femur): 0
Loss of chondrocytes (lateral condyle of femur): 0
Lowered proteoglycan stainability (lateral condyle of femur): 0
Cartilage erosion [1]: 0 (4×) and 1 (2×)
Loss of superficial layer [1]: 0 (4×) and 1 (2×)
Histopathological score [1]: 0 (4×) and 2 (2×)
Cartilage erosion (lateral condyle of tibia): 0
Cluster formation (lateral condyle of tibia): 0
Disorganization of chondrocytes (lateral condyle of tibia): 0
Exposure of subchondral bone (lateral condyle of tibia): 0
Fibrillation and/or fissure (lateral condyle of tibia): 0
Loss of chondrocytes (lateral condyle of tibia): 0
Loss of superficial layer (lateral condyle of tibia): 0
Lowered proteoglycan stainability [2]: 0 (3×) and 1 (3×)
Histopathological score [2]: 0 (3×) and 1 (3×)
damages resulting from the preparation of osteoarthritis models (lateral condyles of the femur and of the tibia): substantially no damages
Cartilage erosion, Mean (medial condyle of femur): 1.17
Cluster formation, Mean (medial condyle of femur): 2.17
Disorganization of chondrocytes, Mean (medial condyle of femur): 0.83
Exposure of subchondral bone, Mean (medial condyle of femur): 0.33
Fibrillation and/or fissure, Mean (medial condyle of femur): 0.67
Loss of chondrocytes, Mean (medial condyle of femur): 0.83
Loss of superficial layer, Mean (medial condyle of femur): 1.17
Lowered proteoglycan stainability, Mean (medial condyle of femur): 1.17
Histopathological score, Mean (medial condyle of femur, p=0.0649 vs vehicle, listed as Test substance, sodium salt): 8.33
Histopathological score, Mean (medial condyle of femur, p=0.0649 vs vehicle, listed as test substance, sodium salt): 8.33±2.51
Cartilage erosion [3]: 1 (4×) and 0 and 3
Cluster formation [3]: 2 (4×) and 4 and 1
Disorganization of chondrocytes [3]: 0 and 1 (5×)
Exposure of subchondral bone [3]: 0 (5×) and 2
Fibrillation and/or fissure [3]: 1 and 0 (4×) and 3
Loss of chondrocytes [3]: 0 (3×) and 1 (2×) and 3
Loss of superficial layer [3]: 1 (4×) and 0 and 3
Lowered proteoglycan stainability [3]: 1 (2×) and 2 and 0 (2×) and 3
Histopathological score [3]: 6 (2×) and 10 and 3 and 20 and 5
Histopathological score (medial condyle of femur, listed as test substance, sodium salt): 6 (2×) and 5 and 10 and 3 and 20
samples in which cartilage erosion was observed [4]: 5
samples in which cluster formation was observed [4]: 6
samples in which disorganization of chondrocytes was observed [4]: 5
samples in which loss of cartilage superficial layer was observed [4]: 5
samples with changes lesser than those observed in the vehicle administered group [4]: 4
histopathological scores compared with the vehicle administered group (medial condyle of the femur, p=0.0649): lower than those of the vehicle administered group
samples in which cartilage fibrillation and/or fissure was observed [5]: 6
samples in which loss of cartilage superficial layer was observed [5]: 5
samples in which lowered proteoglycan stainability was observed [5]: 5
Cartilage erosion, Mean (medial condyle of tibia): 1.17
Cluster formation, Mean (medial condyle of tibia): 1.50
Disorganization of chondrocytes, Mean (medial condyle of tibia): 1.33
Exposure of subchondral bone, Mean (medial condyle of tibia): 0.50
Fibrillation and/or fissure, Mean (medial condyle of tibia): 1.50
Loss of chondrocytes, Mean (medial condyle of tibia): 0.67
Loss of superficial layer, Mean (medial condyle of tibia): 2.00
Lowered proteoglycan stainability, Mean (medial condyle of tibia): 1.83
Histopathological score, Mean (medial condyle of tibia, p=0.6991 vs vehicle, listed as Test substance, sodium salt): 10.50
Histopathological score, Mean (medial condyle of tibia, p=0.6991 vs vehicle, listed as test substance, sodium salt): 10.50±3.91
Cartilage erosion [6]: 2 and 1 (2×) and 0 (2×) and 3
Cluster formation [6]: 4 and 1 (2×) and 0 (2×) and 3
Disorganization of chondrocytes [6]: 2 and 1 (2×) and 0 (2×) and 4
Exposure of subchondral bone [6]: 0 (5×) and 3
Fibrillation and/or fissure [6]: 1 (4×) and 3 and 2
Loss of chondrocytes [6]: 0 (4×) and 3 and 1
Loss of superficial layer [6]: 3 (2×) and 1 (2×) and 0 and 4
Lowered proteoglycan stainability [6]: 4 (2×) and 1 (3×) and 0
Histopathological score [6]: 16 and 6 and 1 and 27 and 9 and 4
Histopathological score (medial condyle of tibia, listed as test substance, sodium salt): 4 and 16 and 6 and 1 and 27 and 9

— US9085593B2, “Therapeutic agent for arthrosis” (SANSHO CO., LTD., priority 2011, dated 2015)
